In PubChem BioAssay (NCI):
“And” between values parts separate entries of the source, which are not always exact repeats. Equal values may be shown once.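 Values below derive from 48-hour exposures of cells grown in 96-well plates, with endpoints linearly interpolated between the two concentrations bracketing the appropriate inhibition level. Here, GI50 denotes the concentration required for 50% inhibition of growth. At the TGI there is no net growth.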

Test system: PC-3 prostate
Assay: NCI tumour cell line growth inhibition, 48 h

| SMILES | GI50 [µM] | TGI [µM] |
| --- | --- | --- |
| NC(=S)N/N=C/c1ccc(OC(=O)COc2ccc(Cl)cc2)cn1 | 4.67 | > 100 |
| O=C(N/N=C/c1cccc(O)c1O)c1ccccc1 | 0.725 | > 100 |
| O=C1c2ccccc2-c2c1c1ccccc1c(=O)n2Cc1ccccc1 |  | > 100 |
| Nc1ncc(-c2cnn(CCO)c2)c2scc(-c3ccc(NC(=O)Nc4cccc(F)c4)cc3)c12 | 0.288 | 3.28 |
| COc1cc(C2=NN(C(C)=O)C(c3ccc(OC(C)=O)cc3OC(C)=O)O2)c(OC(C)=O)c2ccccc12 (stereo not drawn) | 0.753 | 35.4 |
| CCOC(=O)c1cc(/C(=N\O)c2cc(OC)c(OC)c(OC)c2)n2cc(C)cc(C)c12 | 3.33 | > 100 |
| COC(=O)C(=O)C(C(=O)C(=O)Nc1ccccc1C(N)=O)c1nc2ccc(Cl)cc2[nH]c1=O (stereo not drawn) |  | > 100 |
| COc1cc[nH]c1/C=C1\C(=O)Nc2ccccc21 | 8.78 | > 25 |
| Cc1cn2c(/C=C3/C(=O)N(C)c4ccccc43)c(C)nc2s1 | 16.5 | > 100 |
| Cc1nc2ccccc2c(=O)n1NC(=O)c1ccccn1 |  | > 100 |

Test system: NCI-H226 lung
Assay: NCI tumour cell line growth inhibition, 48 h

| SMILES | TGI | GI50 [µM] |
| --- | --- | --- |
| O=C1NC(=O)c2ccc([N+](=O)[O-])c3cccc1c23 | 43.6 µM |  |
| C[N+](C)(C)CC1CCCC(C[N+](C)(C)C)C1=O (stereo not drawn) | 31.4 µM |  |
| CN(C)CCCn1c2c(c3ccccc3c1=O)C(=O)c1ccccc1-2 | 2.74 µM | 1.18 |
| CN(C)CCNC(=O)c1cccc(C(=O)Nc2ccccc2)c1[N+](=O)[O-] | > 100 µM |  |
| CC(=O)OC1Oc2ccccc2-c2oc(=O)c(-c3cc4ccc(N(C)C)cc4oc3=O)cc21 (stereo not drawn) | 28.3 µM | 11.2 |
| CCC1(O)C(=O)OCc2c1cc1n(c2=O)Cc2cc3ccc(C=O)cc3nc2-1 (stereo not drawn) | 13.9 µM and 7.4 µM | 1.76 |
| CC1(C)C2CC(O)C1(C)CC2=O (stereo not drawn) | > 100 µM |  |
| COc1ccc2c(c1)C(=O)c1c-2n(CCCn2ccnc2)c(=O)c2ccccc12 | 5.58 µM | 1.12 |
| COc1cc2oc(-c3ccc(O)cc3)cc(=O)c2c(OC)c1OC | > 100 µM |  |
| O=C(CCl)Nc1ccc(Cl)cc1 | 15.7 µM | 4.17 |
| O=S(=O)(/N=S(/Nc1ccccc1)C(Cl)Cl)c1ccccc1 (stereo not drawn) | > 100 µM |  |
| Fc1cc(F)c(COc2cc(Cn3cnc4c(Cl)nc(Cl)nc43)ccc2C23CC4CC(CC(C4)C2)C3)cc1F | 4.51 µM | 2.15 |
| COc1ccc(N2C(=O)C3c4[nH]c5ccc(C)cc5c4C4CCC(C(C)(C)C)CC4C3C2=O)cc1 (stereo not drawn) | 48.9 µM |  |
| NC(=S)N/N=C/c1ccc(OC(=O)COc2ccc(Cl)cc2)cn1 | 48.9 µM | 13.4 |
| O=C(N/N=C/c1cccc(O)c1O)c1ccccc1 | > 30.2 µM | 3.22 |
| O=C1c2ccccc2-c2c1c1ccccc1c(=O)n2Cc1ccccc1 | > 100 µM |  |
| Nc1ncc(-c2cnn(CCO)c2)c2scc(-c3ccc(NC(=O)Nc4cccc(F)c4)cc3)c12 | 5.15 µM | 0.162 |
| COc1cc(C2=NN(C(C)=O)C(c3ccc(OC(C)=O)cc3OC(C)=O)O2)c(OC(C)=O)c2ccccc12 (stereo not drawn) | 14.4 µM | 1.15 |
| COC(=O)C(=O)C(C(=O)C(=O)Nc1ccccc1C(N)=O)c1nc2ccc(Cl)cc2[nH]c1=O (stereo not drawn) | > 100 µM |  |
| COc1cc[nH]c1/C=C1\C(=O)Nc2ccccc21 | > 25 µM | 7.14 |
| Cc1cn2c(/C=C3/C(=O)N(C)c4ccccc43)c(C)nc2s1 | > 100 µM | 40.5 |

Test system: HS 578T breast
Assay: NCI tumour cell line growth inhibition, 48 h

| SMILES | TGI | GI50 [µM] |
| --- | --- | --- |
| O=C1NC(=O)c2ccc([N+](=O)[O-])c3cccc1c23 | 61 µM |  |
| C[N+](C)(C)CC1CCCC(C[N+](C)(C)C)C1=O (stereo not drawn) | 33.6 µM |  |
| CN(C)CCCn1c2c(c3ccccc3c1=O)C(=O)c1ccccc1-2 | 38 µM | 8.06 |
| CN(C)CCNC(=O)c1cccc(C(=O)Nc2ccccc2)c1[N+](=O)[O-] | > 100 µM |  |
| CC(=O)OC1Oc2ccccc2-c2oc(=O)c(-c3cc4ccc(N(C)C)cc4oc3=O)cc21 (stereo not drawn) | 26.1 µM | 4.56 |
| CCC1(O)C(=O)OCc2c1cc1n(c2=O)Cc2cc3ccc(C=O)cc3nc2-1 (stereo not drawn) | 50 µM and > 100 µM | 27 |
| CC1(C)C2CC(O)C1(C)CC2=O (stereo not drawn) | > 100 µM |  |
| COc1ccc2c(c1)C(=O)c1c-2n(CCCn2ccnc2)c(=O)c2ccccc12 | 17.8 µM | 1.49 |
| COc1cc2oc(-c3ccc(O)cc3)cc(=O)c2c(OC)c1OC | > 100 µM |  |
| O=C(CCl)Nc1ccc(Cl)cc1 | 42.4 µM | 3.96 |
| O=S(=O)(/N=S(/Nc1ccccc1)C(Cl)Cl)c1ccccc1 (stereo not drawn) | > 100 µM |  |
| Fc1cc(F)c(COc2cc(Cn3cnc4c(Cl)nc(Cl)nc43)ccc2C23CC4CC(CC(C4)C2)C3)cc1F | 60.9 µM | 22.9 |
| COc1ccc(N2C(=O)C3c4[nH]c5ccc(C)cc5c4C4CCC(C(C)(C)C)CC4C3C2=O)cc1 (stereo not drawn) | 9.89 µM |  |
| CC/C=C\C[C@@H]1C/C=C2/C(=O)C=C[C@H]2C/C=C\CCCC(=O)O1 | 9.11 µM | 2.84 |
| NC(=S)N/N=C/c1ccc(OC(=O)COc2ccc(Cl)cc2)cn1 | > 100 µM | 2.86 |
| O=C(N/N=C/c1cccc(O)c1O)c1ccccc1 | > 100 µM | 10.5 |
| O=C1c2ccccc2-c2c1c1ccccc1c(=O)n2Cc1ccccc1 | > 100 µM |  |
| Nc1ncc(-c2cnn(CCO)c2)c2scc(-c3ccc(NC(=O)Nc4cccc(F)c4)cc3)c12 | 3.02 µM | 0.273 |
| COc1cc(C2=NN(C(C)=O)C(c3ccc(OC(C)=O)cc3OC(C)=O)O2)c(OC(C)=O)c2ccccc12 (stereo not drawn) | > 100 µM | 13.1 |
| CCOC(=O)c1cc(/C(=N\O)c2cc(OC)c(OC)c(OC)c2)n2cc(C)cc(C)c12 | > 100 µM | 2.7 |
| COC(=O)C(=O)C(C(=O)C(=O)Nc1ccccc1C(N)=O)c1nc2ccc(Cl)cc2[nH]c1=O (stereo not drawn) | > 100 µM |  |
| COc1cc[nH]c1/C=C1\C(=O)Nc2ccccc21 | > 25 µM | 5.91 |
| Cc1cn2c(/C=C3/C(=O)N(C)c4ccccc43)c(C)nc2s1 | 50.4 µM | 9.59 |
| Cc1nc2ccccc2c(=O)n1NC(=O)c1ccccn1 | > 100 µM |  |
